According to US8557847B2, “Synergistic modulation of FLT3 kinase using a FLT3 inhibitor and a farnesyl transferase inhibitor” (Janssen Pharmaceutica, N.V., priority 2005, dated 2013):
pIC50: −log10 of the molar value. Counter-ions that a name gives are not always drawn.

test system: MV4-11 cells; test: Inhibition of MV4-11 cell proliferation (CellTiterGlo); type: cell-based; details: Homo sapiens, 72 hours growth, uncertainty ±20%
Protocol: To assess the cellular potency of compounds of the present invention, FLT3 specific growth inhibition was measured in the leukemic cell line MV4-11 (ATCC Number: CRL-9591). […] MV4-11 cells cannot grow and survive without active FLT3ITD.
To measure proliferation inhibition by compounds of the present invention, the luciferase based CellTiterGlo reagent (Promega), which quantifies total cell number based on total cellular ATP concentration, was used. Cells are plated at 10,000 cells per well in 100 ul of in RPMI media containing penn/strep, 10% FBS and 1 ng/ml GM-CSF or 1 ng/ml IL-3 for MV4-11 and Baf3 cells respectively.
Compound dilutions or 0.1% DMSO (vehicle control) are added to cells and the cells are allowed to grow for 72 hours at standard cell growth conditions (37° C., 5% CO2). For activity measurements in MV4-11 cells grown in 50% plasma, cells were plated at 10,000 cells per well in a 1:1 mixture of growth media and human plasma (final volume of 100 μL). To measure total cell growth an equal volume of CellTiterGlo reagent was added to each well, according to the manufacturer's instructions, and luminescence was quantified. Total cell growth was quantified as the difference in luminescent counts (relative light units, RLU) of cell number at Day 0 compared to total cell number at Day 3 (72 hours of growth and/or compound treatment). One hundred percent inhibition of growth is defined as an RLU equivalent to the Day 0 reading. Zero percent inhibition was defined as the RLU signal for the DMSO vehicle control at Day 3 of growth.
Data points are an average of triplicate samples. […] Inhibition and IC50 data analysis was done with GraphPad Prism using a non-linear regression fit with a multiparamater, sigmoidal dose-response (variable slope) equation. MV4-11 cells express the FLT3 internal tandem duplication mutation, and thus are entirely dependent upon FLT3 activity for growth. […] In contrast, the Baf3 cell proliferation is driven by the cytokine IL-3 and thus is used as a non-specific toxicity control.

First: N#Cc1c[nH]c(C(=O)Nc2ccc(C3CCN(CCN4CCOCC4)CC3)cc2C2=CCCCC2)n1 [Compound 34, 4-Cyano-1H-imidazole-2-carboxylic acid {2-cyclohex-1-enyl-4-[1-(2-morpholin-4-yl-ethyl)-piperidin-4-yl]-phenyl}-amide di-trifluoroacetic acid salt]
Second: CS(=O)(=O)CCN1CCC(c2ccc(NC(=O)c3nc(C#N)c[nH]3)c(C3=CCCCC3)c2)CC1 [Compound 40, 4-Cyano-1H-imidazole-2-carboxylic acid {2-cyclohex-1-enyl-4-[1-(2-methanesulfonyl-ethyl)-piperidin-4-yl]-phenyl}-amide]
The pIC50 of the first is 1.16 log units higher: 8.10 for the first, 6.94 for the second.

`N#Cc1c[nH]c(C(=O)Nc2ccc(C3CCNCC3)cc2C2=CCS(=O)(=O)CC2)n1` [Compound 36, 4-Cyano-1H-imidazole-2-carboxylic acid [2-(1,1-dioxo-1,2,3,6-tetrahydro-1λ6-thiopyran-4-yl)-4-piperidin-4-yl-phenyl]-amide trifluoroacetic acid salt] gave a pIC50 of 6.72.

target: T1, wild-type FLT3 phosphorylation in Baf3 FLT3 cells (Homo sapiens, UniProt P36888); test: Cell-based FLT3 receptor ELISA; details: uncertainty ±20%
T1 construct: host or cells: Baf3 (murine B cell lymphoma line)
T1 sequence (P36888 27-993): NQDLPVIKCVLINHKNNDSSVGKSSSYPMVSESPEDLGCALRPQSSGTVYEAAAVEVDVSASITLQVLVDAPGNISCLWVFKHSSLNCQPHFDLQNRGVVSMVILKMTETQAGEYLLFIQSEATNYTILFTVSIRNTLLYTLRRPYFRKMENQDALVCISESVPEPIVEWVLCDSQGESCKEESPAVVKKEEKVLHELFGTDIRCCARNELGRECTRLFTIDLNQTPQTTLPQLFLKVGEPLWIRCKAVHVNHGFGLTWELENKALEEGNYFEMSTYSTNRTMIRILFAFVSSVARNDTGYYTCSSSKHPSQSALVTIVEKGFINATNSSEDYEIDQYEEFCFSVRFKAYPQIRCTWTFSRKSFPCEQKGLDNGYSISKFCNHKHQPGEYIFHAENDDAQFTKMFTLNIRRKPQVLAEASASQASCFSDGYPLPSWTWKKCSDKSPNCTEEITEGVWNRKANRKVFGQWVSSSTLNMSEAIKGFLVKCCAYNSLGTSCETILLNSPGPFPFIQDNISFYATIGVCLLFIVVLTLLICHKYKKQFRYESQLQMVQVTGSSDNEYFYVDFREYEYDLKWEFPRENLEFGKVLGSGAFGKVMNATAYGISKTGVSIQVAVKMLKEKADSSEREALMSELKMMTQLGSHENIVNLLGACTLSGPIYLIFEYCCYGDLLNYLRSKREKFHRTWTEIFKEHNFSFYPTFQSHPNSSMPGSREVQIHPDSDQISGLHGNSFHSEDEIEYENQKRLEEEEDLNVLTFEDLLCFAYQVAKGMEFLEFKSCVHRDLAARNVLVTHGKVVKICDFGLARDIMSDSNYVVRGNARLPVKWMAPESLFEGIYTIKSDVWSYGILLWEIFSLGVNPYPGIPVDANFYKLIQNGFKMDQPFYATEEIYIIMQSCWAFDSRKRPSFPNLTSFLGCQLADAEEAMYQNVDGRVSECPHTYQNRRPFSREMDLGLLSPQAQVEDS
Source text: Data points are an average of triplicate samples. […] Leukemia.

With `CN1CCN(c2ccc(NC(=O)c3ccc(C#N)o3)c(C3=CCCCC3)c2)CC1` [Compound 11, 5-Cyano-furan-2-carboxylic acid [2-cyclohex-1-enyl-4-(4-methyl-piperazin-1-yl)-phenyl]-amide] the pIC50 was 5.89.

target: T2, isolated kinase domain of the human FLT3 receptor (a.a. 571-993) (Homo sapiens, UniProt P36888); test: FLT3 fluorescence polarization kinase assay; type: biochemical; details: 150 uM ATP; uncertainty ±10%; read-out: Flt-3 IC50
T2 construct: human FLT3 receptor (a.a. 571-993)
T2 sequence (P36888 571-993): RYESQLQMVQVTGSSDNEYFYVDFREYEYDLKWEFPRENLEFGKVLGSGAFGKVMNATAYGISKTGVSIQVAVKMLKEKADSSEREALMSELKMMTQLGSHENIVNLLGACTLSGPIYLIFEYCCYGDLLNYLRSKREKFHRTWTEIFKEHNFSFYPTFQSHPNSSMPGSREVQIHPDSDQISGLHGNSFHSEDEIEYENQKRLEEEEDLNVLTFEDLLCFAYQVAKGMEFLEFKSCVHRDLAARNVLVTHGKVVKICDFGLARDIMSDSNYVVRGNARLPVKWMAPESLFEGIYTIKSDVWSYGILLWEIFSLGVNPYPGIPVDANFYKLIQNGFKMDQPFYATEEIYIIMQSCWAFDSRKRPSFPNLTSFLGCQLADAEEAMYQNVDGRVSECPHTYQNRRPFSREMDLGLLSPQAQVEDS
Source text: The FLT3 FP assay utilizes the fluorescein-labeled phosphopeptide and the anti-phosphotyrosine antibody included in the Panvera Phospho-Tyrosine Kinase Kit (Green) supplied by Invitrogen. When FLT3 phosphorylates polyGlu4Tyr, the fluorescein-labeled phosphopeptide is displaced from the anti-phosphotyrosine antibody by the phosphorylated poly Glu4Tyr, thus decreasing the FP value. […] The kinase reaction is stopped with the addition of EDTA. The fluorescein-labeled phosphopeptide and the anti-phosphotyrosine antibody are added and incubated for 30 minutes at room temperature.
Data points are an average of triplicate samples. Inhibition and IC50 data analysis was done with GraphPad Prism using a non-linear regression fit with a multiparamater, sigmoidal dose-response (variable slope) equation.

`N#Cc1c[nH]c(C(=O)Nc2ccc(C3CCN(C(CO)CO)CC3)cc2C2=CCCCC2)n1` [Compound 6, 4-Cyano-1H-imidazole-2-carboxylic acid {2-cyclohex-1-enyl-4-[1-(2-hydroxy-1-hydroxymethyl-ethyl)-piperidin-4-yl]-phenyl}-amide trifluoroacetic acid salt] and `N#Cc1c[nH]c(C(=O)Nc2ccc(C3CCN(CCO)CC3)cc2C2=CCCCC2)n1` [Compound 26, 4-Cyano-1H-imidazole-2-carboxylic acid {2-cyclohex-1-enyl-4-[1-(2-hydroxy-ethyl)-piperidin-4-yl]-phenyl}-amide trifluoroacetic acid salt] are within 0.2 log units of each other in pIC50: 7.09 for the first, 7.28 for the second.

First: Cc1ccccc1-c1cc(N2CCN(C)CC2)ccc1NC(=O)c1ccc(C#N)o1 [Compound 9, 5-Cyano-furan-2-carboxylic acid [2′-methyl-5-(4-methyl-piperazin-1-yl)-biphenyl-2-yl]-amide]
Second: CN1CCN(c2ccc(NC(=O)c3ccc(C#N)o3)c(C3=CCCCC3)c2)CC1 [Compound 11, 5-Cyano-furan-2-carboxylic acid [2-cyclohex-1-enyl-4-(4-methyl-piperazin-1-yl)-phenyl]-amide]
The pIC50 of the first is 0.42 log units higher: 7.01 for the first, 6.59 for the second.

Going from `CN1CCN(c2ccc(NC(=O)c3ccc(C#N)o3)c(C3=CCOCC3)c2)CC1` [Compound 12] to `Cn1ccnc1CN1CCC(c2ccc(NC(=O)c3nc(C#N)c[nH]3)c(C3=CCCC3)c2)CC1` [Compound 23, 4-Cyano-1H-imidazole-2-carboxylic acid {2-cyclopent-1-enyl-4-[1-(1-methyl-1H-imidazol-2-ylmethyl)-piperidin-4-yl]-phenyl}-amide trifluoroacetic acid salt], the pIC50 rises from 5.91 to 7.80 (1.89 log units).

Going from `N#Cc1c[nH]c(C(=O)Nc2ccc(C3CCNCC3)cc2C2=CCCCC2)c1` [Compound 13, 4-Cyano-1H-pyrrole-2-carboxylic acid (2-cyclohex-1-enyl-4-piperidin-4-yl-phenyl)-amide trifluoroacetic acid salt] to `CC1CC=C(c2cc(C3CCNCC3)ccc2NC(=O)c2nc(C#N)c[nH]2)CC1` (centres unmarked) [Compound 17, 4-Cyano-1H-imidazole-2-carboxylic acid [2-(4-methyl-cyclohex-1-enyl)-4-piperidin-4-yl-phenyl]-amide trifluoroacetic acid salt], the pIC50 rises from 7.47 to 7.89 (0.42 log units). The second is the more potent here.

Compared with `CC(=O)N1CCC(c2ccc(NC(=O)c3nc(C#N)c[nH]3)c(C3=CCCCC3)c2)CC1` [Compound 16, 4-Cyano-1H-imidazole-2-carboxylic acid [4-(1-acetyl-piperidin-4-yl)-2-cyclohex-1-enyl-phenyl]-amide], `N#Cc1c[nH]c(C(=O)Nc2ccc(C3CCN(C(N)=O)CC3)cc2C2=CCCCC2)n1` [Compound 24, 4-{4-[(4-Cyano-1H-imidazole-2-carbonyl)-amino]-3-cyclohex-1-enyl-phenyl}-piperidine-1-carboxylic acid amide] is 0.98 log units lower in pIC50: 7.41 for the first, 6.43 for the second.

`CS(=O)(=O)CC(=O)N1CCC(c2ccc(NC(=O)c3nc(C#N)c[nH]3)c(C3=CCCCC3)c2)CC1` [Compound 20, 4-Cyano-1H-imidazole-2-carboxylic acid {2-cyclohex-1-enyl-4-[1-(2-methanesulfonyl-acetyl)-piperidin-4-yl]-phenyl}-amide] and `N#Cc1c[nH]c(C(=O)Nc2ccc(C3CCS(=O)(=O)CC3)cc2C2=CCCCC2)n1` [Compound 35, 4-Cyano-1H-imidazole-2-carboxylic acid [2-cyclohex-1-enyl-4-(1,1-dioxo-hexahydro-1λ^6-thiopyran-4-yl)-phenyl]-amide] are within 0.2 log units of each other in pIC50: 6.89 for the first, 6.92 for the second.

Compared with `N#Cc1c[nH]c(C(=O)Nc2ccc(C3CCNCC3)cc2C2=CCS(=O)(=O)CC2)n1` [Compound 36, 4-Cyano-1H-imidazole-2-carboxylic acid [2-(1,1-dioxo-1,2,3,6-tetrahydro-1λ6-thiopyran-4-yl)-4-piperidin-4-yl-phenyl]-amide trifluoroacetic acid salt], `CC(=O)N1CCC(c2ccc(NC(=O)c3nc(C#N)c[nH]3)c(C3=CCCNC3)c2)CC1` [Compound 46, 4-Cyano-1H-imidazole-2-carboxylic acid [4-(1-acetyl-piperidin-4-yl)-2-(1,2,5,6-tetrahydro-pyridin-3-yl)-phenyl]-amide trifluoroacetic acid salt] is 2.37 log units higher in pIC50: 5.04 for the first, 7.41 for the second. The second is the more potent here.

Compared with `C[C@@H]1CC(c2ccc(NC(=O)c3ncc(C#N)[nH]3)c(C3=CCCCC3)c2)C[C@H](C)N1` (stereo partly drawn) [Compound 51a, 5-Cyano-1H-imidazole-2-carboxylic acid [2-cyclohex-1-enyl-4-(cis-2,6-dimethyl-piperidin-4-yl)-phenyl]-amide bis trifluoroacetic acid salt], `CC1(C)CC=C(c2nc(C3CCN(CCS(C)(=O)=O)CC3)ccc2NC(=O)c2nc(C#N)c[nH]2)CC1` [Compound 56, 4-Cyano-1H-imidazole-2-carboxylic acid [6-(4,4-dimethyl-cyclohex-1-enyl)-1′-(2-methanesulfonyl-ethyl)-1′,2′,3′,4′,5′,6′-hexhydro-[2,4]bipyridinyl-5-yl]-amide trifluoroacetic acid salt] is 1.79 log units lower in pIC50: 8.64 for the first, 6.85 for the second.
